Measurements published in paper PMC8286831, “Identifying SARS-CoV-2 antiviral compounds by screening for small molecule inhibitors of nsp13 helicase” (Biochemical Journal, 2021).
“Also recorded” adds a separate entry of the source. Counter-ions that a name gives are not always drawn. Like-named read-outs stand apart in the source and are kept apart here.

Legend:
[1] = target: SARS-CoV-2 nsp13 helicase (Severe acute respiratory syndrome coronavirus 2, UniProt P0DTD1); assay: biochemical; type: biochemical; conditions: for nsp13 inhibition and detergent sensitivity: presence or absence of non-ionic detergent
[2] = target: T1, SARS-CoV-2 RdRp holoenzyme (Severe acute respiratory syndrome coronavirus 2, UniProt P0DTD1); assay: FRET-based RdRp strand displacement assay; type: biochemical
T1 construct: (Sf nsp12-3F/7L8 preincubated with Sf 7H8 at a 1:3 ratio); 3F (3xFlag) (C); made in house; host or cells: 'Sf', read as Spodoptera frugiperda insect cells (my inference from the prefix); details are in Bertolin et al

[3] = RNA (RdRp substrate), 0.3 mM each NTP, 0.02% Tween-20 in RdRp assay buffer
[4] = read-out: IC50 + 0.02% Tween-20
[5] = RNA (nsp13 substrate), 0.3 mM ATP, 0.02% Tween-20 in RdRp assay buffer
[6] = IC50 0.02% Tween-20 + (presence)
[7] = IC50 0.02% Tween-20 − (absence)
[8] = RNA (nsp13 substrate), 0.3 mM ATP, 0.02% Tween-20 in RdRp assay buffer, read-out: IC50 nsp13
[9] = RNA (RdRp substrate), 0.3 mM each NTP, 0.02% Tween-20 in RdRp assay buffer, read-out: IC50 RdRp

## NC(Cc1cc(O)c(O)cc1O)C(=O)O (racemic) [6-Hydroxy-DL-DOPA]
[1]
  IC50 + 0.02% Tween-20: Quenching
  IC50 No detergent: Quenching

## CN(C)CC[C@H](CSc1ccccc1)Nc1ccc(S(=O)(=O)NC(=O)c2ccc(N3CCC(C)(C)CC3)cc2)cc1[N+](=O)[O-] [A-385358]
[2]; [3]
  IC50 RdRp: did not inhibit RdRp; also recorded: No inhibition
[1]
  IC50 nsp13: No inhibition
[1]; [4]
  IC50: > 250 µM
[1]; read-out: IC50 No detergent
  IC50: 3.3 µM

## CN(C)CC[C@H](CSc1ccccc1)Nc1ccc(S(=O)(=O)NC(=O)c2ccc(N3CCN(Cc4ccccc4-c4ccc(Cl)cc4)CC3)cc2)cc1[N+](=O)[O-] [ABT-737]
[2]; [3]
  IC50 RdRp: No inhibition
[1]; IC50 + 0.02% Tween-20
  IC50: > 250 µM
[1]; IC50 No detergent
  IC50: 1.2 µM
[1]; [5]
  IC50 nsp13: No inhibition

## CCN(CC)C(=O)c1ccc(C2=CC3(CCNCC3)Oc3cccc(O)c32)cc1 [ADL5859]
[1]
  IC50 + 0.02% Tween-20: No inhibition
[1]; IC50 No detergent
  IC50: > 250 µM

## Nc1ncnc2c1ncn2[C@@H]1O[C@H](COP(=O)(O)OP(=O)(O)OP(=O)(O)O)[C@@H](O)[C@H]1O [ATP]
[1]; 2 nM FH-nsp13, 200 nM DNA substrate, read-out: Km for ATP with the DNA substrate
  Km: 110 µM
[1]; 3 nM FH-nsp13, 200 nM RNA substrate, read-out: Km for ATP with the RNA substrate
  Km: 130 µM

## COc1ccc(-c2ccc3cc(C(=O)O)ccc3c2)cc1C12CC3CC(CC(C3)C1)C2 [Adapalene]
[2]
  IC50: 20 µM
[1]; [6]
  IC50: 5.5 µM
[1]; [7]
  IC50: 1.3 µM
[1]; IC50 + 0.02% Tween-20
  IC50: 9.9 µM
[1]; IC50 No detergent
  IC50: 3.7 µM
[1]; IC50 nsp13
  IC50: 11 µM

## Cc1cc(O[C@@H](CCC(F)(F)F)c2ccc(C(=O)NCCC(=O)O)cc2)cc(C)c1-c1ccc(C(C)(C)C)cc1 [Adomeglivant]
[2]
  IC50: 39 µM
[1]; IC50 + 0.02% Tween-20
  IC50: 103 µM
[1]; IC50 No detergent
  IC50: 5.3 µM
[1]; [8]
  IC50: > 100 µM

## CC(C)c1cc(C(C)C)c(CC(=O)NS(=O)(=O)Oc2c(C(C)C)cccc2C(C)C)c(C(C)C)c1 [Avasimibe]
[2]
  IC50: 18 µM
[2]; [3]
  IC50 RdRp: also inhibited RdRp in a similar fashion
[1]; [6]
  IC50: 17 µM
[1]; [7]
  IC50: 1.3 µM
[1]; IC50 + 0.02% Tween-20
  IC50: 13 µM
[1]; IC50 No detergent
  IC50: 4 µM

## O=C1/C(=C/c2ccc(O)c(Br)c2)CN(Cc2ccccc2)C/C1=C\c1ccc(O)c(Br)c1 [CARM1-IN-1]
[2]; [9]
  IC50: > 100 µM
[1]; [8]
  IC50: > 100 µM
[1]; [4]
  IC50: 126 µM
[1]; read-out: IC50 No detergent
  IC50: 4.2 µM

## CO/N=C(\C(=O)N[C@@H]1C(=O)N2C(C(=O)O)=C(CSC(=O)c3ccco3)CS[C@H]12)c1csc(N)n1 [Ceftiofur HCl]
[1]; IC50 + 0.02% Tween-20
  IC50: > 250 µM
[1]; IC50 No detergent
  IC50: > 250 µM

## CC(C)(C[C@H]1CN(S(=O)(=O)c2cccc(C(F)(F)F)c2)c2cc(-c3cc(F)cc(OC(F)F)c3)ccc2O1)C(=O)O [Cintirorgon]
[2]; [9]
  IC50: 36 µM
[1]; [6]
  IC50: 41 µM
[1]; [7]
  IC50: 2.1 µM
[1]; IC50 + 0.02% Tween-20
  IC50: 38 µM
[1]; IC50 No detergent
  IC50: 2.3 µM
[1]; [8]
  IC50: 97 µM

## COc1cccc2c1C(=O)c1c(O)c3c(c(O)c1C2=O)C[C@@](O)(C(=O)CO)C[C@@H]3O[C@H]1C[C@H](N)[C@H](O)[C@H](C)O1 [Doxorubicin]
[1]
  IC50 + 0.02% Tween-20: Artifact
  IC50 No detergent: Artifact

## CC/C=C\C/C=C\C/C=C\C/C=C\C/C=C\CCCC(=O)O [Eicosapentaenoic acid]
[2]; [9]
  IC50: 29 µM
[1]; IC50 + 0.02% Tween-20
  IC50: 69 µM
[1]; IC50 No detergent
  IC50: 14 µM
[1]; [8]
  IC50: 81 µM

## CCCCCCCC/C=C/CCCCCCCC(=O)O [Elaidic acid]
[2]; [3]
  IC50 RdRp: No inhibition
[1]; IC50 + 0.02% Tween-20
  IC50: > 250 µM
[1]; IC50 No detergent
  IC50: 8.6 µM
[1]; [5]
  IC50 nsp13: No inhibition

## COc1cc2c(cc1Cc1cccc(Cl)c1F)c(=O)c(C(=O)O)cn2[C@H](CO)C(C)C [Elvitegravir]
[1]; IC50 + 0.02% Tween-20
  IC50: > 250 µM
[1]; IC50 No detergent
  IC50: 22 µM
[1]
  nsp13 inhibition and detergent sensitivity: clear inhibition only in the absence of detergent

## COC(=O)[C@@H]1CC2=CC(=O)CC[C@]2(C)[C@@]23O[C@@H]2C[C@@]2(C)[C@@H](CC[C@@]24CCC(=O)O4)[C@H]13 [Eplerenone]
[1]
  IC50 + 0.02% Tween-20: No inhibition
[1]; IC50 No detergent
  IC50: > 250 µM

## CC1=C(/C=C/C(C)=C/C=C/C(C)=C/C(=O)Nc2ccc(O)cc2)C(C)(C)CCC1 [Fenretinide]
[2]; [3]
  IC50 RdRp: No inhibition
[1]; [6]
  IC50: > 250 µM
[1]; [7]
  IC50: 7.3 µM
[1]; IC50 + 0.02% Tween-20
  IC50: > 250 µM
[1]; IC50 No detergent
  IC50: 9.1 µM
[1]; [5]
  IC50 nsp13: No inhibition

## CC1(C)O[C@@H]2C[C@H]3[C@@H]4C[C@H](F)C5=CC(=O)C=C[C@]5(C)[C@@]4(F)[C@@H](O)C[C@]3(C)[C@]2(C(=O)CO)O1 [Fluocinolone Acetonide]
[1]
  IC50 + 0.02% Tween-20: No inhibition
[1]; IC50 No detergent
  IC50: > 250 µM

## CC(C)(Sc1ccc(CCN(CCCCC2CCCCC2)C(=O)NC2CCCCC2)cc1)C(=O)O [GW7647]
[2]; [9]
  IC50: 32 µM
[1]; [6]
  IC50: 25 µM
[1]; [7]
  IC50: 2.3 µM
[1]; IC50 + 0.02% Tween-20
  IC50: 27 µM
[1]; IC50 No detergent
  IC50: 5.9 µM
[1]; [8]
  IC50: 39 µM

## Cc1cc2c(C(C)C)c(O)c(O)c(C=O)c2c(O)c1-c1c(C)cc2c(C(C)C)c(O)c(O)c(C=O)c2c1O [Gossypol]
[2]
  IC50: 17 µM
[1]; [6]
  IC50: 31 µM
[1]; [7]
  IC50: 1.3 µM
[1]; IC50 + 0.02% Tween-20
  IC50: 30 µM
[1]; IC50 No detergent
  IC50: 1.9 µM
[1]; [8]
  IC50: 26 µM

## COc1c2c3c4c(c(OC)c(=O)c5c(O)cc(OC)c(c6c(OC)cc(O)c(c1=O)c63)c54)[C@@H](C(C)=O)[C@@](C)(O)C2 [Hypocrellin A]
[1]; IC50 + 0.02% Tween-20
  IC50: > 250 µM
[1]; IC50 No detergent
  IC50: 12 µM
[1]
  nsp13 inhibition and detergent sensitivity: clear inhibition only in the absence of detergent

## COc1cc(C(=O)O)ccc1NC(=O)[C@@H]1N[C@@H](CC(C)(C)C)[C@](C#N)(c2ccc(Cl)cc2F)[C@H]1c1cccc(Cl)c1F [Idasanutlin]
[2]; [9]
  IC50: 36 µM
[1]; [6]
  IC50: 11 µM
[1]; [7]
  IC50: 2.3 µM
[1]; [8]
  IC50: 19 µM

## Nc1nc2c(c(=O)[nH]1)N(C=O)C(CNc1ccc(C(=O)N[C@@H](CCC(=O)O)C(=O)O)cc1)CN2 (stereo partly shown) [Leucovorin Calcium]
[2]; [3]
  IC50 RdRp: No inhibition
[1]; IC50 + 0.02% Tween-20
  IC50: > 250 µM
[1]; IC50 No detergent
  IC50: > 250 µM
[1]; [5]
  IC50 nsp13: No inhibition

## CS(=O)(=O)c1cccc(C[C@H](NC(=O)c2c(Cl)cc3c(c2Cl)CCN(C(=O)c2ccc4ccoc4c2)C3)C(=O)O)c1 [Lifitegrast]
[1]
  IC50 + 0.02% Tween-20: No inhibition
  IC50 No detergent: No inhibition

## Cc1ccc(F)c(NC(=O)Nc2ccc(-c3cccc4[nH]nc(N)c34)cc2)c1 [Linifanib/ABT-869, Linifanib]
[2]; [3]
  IC50 RdRp: No inhibition
[1]; IC50 + 0.02% Tween-20
  IC50: 230 µM
[1]; IC50 No detergent
  IC50: 26 µM
[1]; [5]
  IC50 nsp13: No inhibition

## CCCCC/C=C\C/C=C\CCCCCCCC(=O)O [Linoleic acid]
[2]; [3]
  IC50 RdRp: No inhibition
[1]; [6]
  IC50: 36 µM
[1]; [7]
  IC50: 4.3 µM
[1]; IC50 + 0.02% Tween-20
  IC50: 38 µM
[1]; IC50 No detergent
  IC50: 11 µM
[1]; [5]
  IC50 nsp13: No inhibition
[1]
  nsp13 inhibition and detergent sensitivity: strong sensitivity to detergents

## O=C1c2c(O)ccc(O)c2C(=O)c2c(NCCNCCO)ccc(NCCNCCO)c21 [Mitoxantrone]
[1]
  IC50 + 0.02% Tween-20: Quenching
  IC50 No detergent: Quenching

## CCCc1c2oc(C(=O)O)cc(=O)c2cc2c(=O)cc(C(=O)O)n(CC)c12 [Nedocromil]
[1]
  IC50 + 0.02% Tween-20: No inhibition
  IC50 No detergent: No inhibition

## O=C(N[C@H]1CCS[C@H]2CCC[C@@H](C(=O)O)N2C1=O)[C@@H](S)Cc1ccccc1 [Omapatrilat]
[1]
  IC50 + 0.02% Tween-20: No inhibition
[1]; IC50 No detergent
  IC50: > 250 µM

## CN1Cc2sccc2C(c2ccc(O)c(O)c2)C1 (stereo not shown) [SKF 89145]
[1]
  IC50 + 0.02% Tween-20: No inhibition
  IC50 No detergent: No inhibition

## Cc1cc(OCCCS(C)(=O)=O)cc(C)c1-c1cccc(COc2ccc3c(c2)OC[C@H]3CC(=O)O)c1 [TAK875, Fasiglifam]
[1]; IC50 + 0.02% Tween-20
  IC50: 72 µM
[1]; IC50 No detergent
  IC50: 19 µM
[1]
  nsp13 inhibition and detergent sensitivity: clear inhibition only in the absence of detergent
